Source: PMC10700596 (Nature Communications, 2023)
Values joined by “and” are separate entries in the source; they are usually repeats but may differ in a detail not shown here. Equal entries are not always repeated. “Also recorded” adds a separate entry of the source.

Key:
[1] = cited from earlier work
EP4R Thr76Ala mutant = EP4R Thr76Ala mutant (Homo sapiens, UniProt P35408, T76A); assay type: cell-based; settings: IC50 vs WT EP4R
Text: three independent experiments. Source data are provided as a Source Data file.
(§1) (1 picture or pasted object on this page, not shown here)

EP4R = target: T1, EP4R (Homo sapiens, UniProt P35408); test: cell-based; settings: read-out: cAMP Assay KB
T1 construct: Tango fusion cassette (only 'tango' is printed); expressed in transfected cells; host or cells: HTLA cells (tTA-dependent luciferase reporter, β-arrestin2-TEV fusion)

EP3R = EP3R (Homo sapiens, UniProt P43115); test: Radioligand (3H-PGE2) displacement assay at EP3R; assay type: binding
[2] = target: T2, prostaglandin D2 (PGD2) receptor (Homo sapiens, UniProt Q9Y5Y4); test: Functional cAMP production assay, PGD2 receptor; assay type: cell-based
T2 sequence (Q9Y5Y4 1-395): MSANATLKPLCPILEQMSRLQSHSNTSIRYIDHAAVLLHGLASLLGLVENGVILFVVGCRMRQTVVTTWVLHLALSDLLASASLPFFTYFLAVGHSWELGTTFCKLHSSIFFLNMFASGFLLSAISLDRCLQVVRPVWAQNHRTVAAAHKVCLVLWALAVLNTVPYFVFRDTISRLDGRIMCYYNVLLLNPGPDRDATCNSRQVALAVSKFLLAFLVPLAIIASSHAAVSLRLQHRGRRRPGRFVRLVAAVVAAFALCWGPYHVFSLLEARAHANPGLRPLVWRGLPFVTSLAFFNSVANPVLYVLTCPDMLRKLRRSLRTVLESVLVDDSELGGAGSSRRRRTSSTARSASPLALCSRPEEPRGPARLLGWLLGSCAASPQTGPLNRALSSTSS

PPARγ = target: T3, PPARγ (Homo sapiens, UniProt P37231); test: PPARγ agonist/antagonist assay (Eurofins item G124); assay type: biochemical
T3 construct: purchased Eurofins item G124
Text: . […] This panel includes several adverse drug reaction receptors such as the serotonin receptor 5HT2b, M1 and M2 muscarinic receptors and adrenergic receptors. […]. page 7:
Supplementary Figure 7: Non-GPCR off-target screening for 74. a)-e) Dose-response curves of 74 at […]
proliferator-activated receptor gamma (PPARγ, Eurofins item G124). Data in a)-e) and g)-i) represent two technical replicates. Source data are provided as a Source Data file.
as §1

[3] = target: ABL1(T315I)-phosphorylated (Homo sapiens, UniProt P00519, T315I); test: biochemical; assay type: binding; settings: 10000 nM; read-out: Percent Control
ABL1-nonphosphorylated = ABL1-nonphosphorylated (Homo sapiens, UniProt P00519); test: biochemical; assay type: binding; settings: 10000 nM; read-out: Percent Control
AXL = AXL (Homo sapiens, UniProt P30530); test: biochemical; assay type: binding; settings: 10000 nM; read-out: Percent Control
BMPR2 = BMPR2 (Homo sapiens, UniProt Q13873); test: biochemical; assay type: binding; settings: for Signal (qPCR): BMPR2
Text: Supplementary Figure 7: Non-GPCR off-target screening for 74. a)-e) Dose-response curves of 74 at
proliferator-activated receptor gamma (PPARγ, Eurofins item G124). Data in a)-e) and g)-i) represent two
technical replicates. Source data are provided as a Source Data file.

CDK3 = CDK3 (Homo sapiens, UniProt Q00526); test: biochemical; assay type: binding; settings: 10000 nM; read-out: Percent Control
CDK9 = CDK9 (Homo sapiens, UniProt P50750); test: biochemical; assay type: binding; settings: 10000 nM; read-out: Percent Control
IKK-beta = IKK-beta (Homo sapiens, UniProt O14920); test: biochemical; assay type: binding; settings: 10000 nM; read-out: Percent Control
TGFBR1 = TGFBR1 (Homo sapiens, UniProt P36897); test: biochemical; assay type: binding; settings: 10000 nM; read-out: Percent Control
[4] = target: T4, TYK2(JH1domain-catalytic) (Homo sapiens, UniProt P29597); test: KINOMEscan; assay type: binding
T4 construct: TYK2(JH1domain-catalytic); purchased Eurofins DiscoverX KINOMEscan (scanEDGE, 97 kinases)
T4 sequence (P29597 888-1187 limits assumed): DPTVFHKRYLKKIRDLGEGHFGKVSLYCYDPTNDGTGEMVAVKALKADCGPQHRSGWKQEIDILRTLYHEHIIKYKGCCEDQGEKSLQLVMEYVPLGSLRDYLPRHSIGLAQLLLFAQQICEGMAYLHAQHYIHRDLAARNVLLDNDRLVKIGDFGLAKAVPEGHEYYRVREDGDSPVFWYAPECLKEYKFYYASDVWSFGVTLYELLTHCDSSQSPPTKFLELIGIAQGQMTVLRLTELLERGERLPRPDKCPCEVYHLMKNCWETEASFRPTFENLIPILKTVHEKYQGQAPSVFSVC

mice [5] = assay type: in vivo
mice [6] = assay type: in vivo; remark: listed apart in the source
[7] = 10000 nM, read-out: Percent Control

Sequence of BMPR2 (Q13873 27-1038): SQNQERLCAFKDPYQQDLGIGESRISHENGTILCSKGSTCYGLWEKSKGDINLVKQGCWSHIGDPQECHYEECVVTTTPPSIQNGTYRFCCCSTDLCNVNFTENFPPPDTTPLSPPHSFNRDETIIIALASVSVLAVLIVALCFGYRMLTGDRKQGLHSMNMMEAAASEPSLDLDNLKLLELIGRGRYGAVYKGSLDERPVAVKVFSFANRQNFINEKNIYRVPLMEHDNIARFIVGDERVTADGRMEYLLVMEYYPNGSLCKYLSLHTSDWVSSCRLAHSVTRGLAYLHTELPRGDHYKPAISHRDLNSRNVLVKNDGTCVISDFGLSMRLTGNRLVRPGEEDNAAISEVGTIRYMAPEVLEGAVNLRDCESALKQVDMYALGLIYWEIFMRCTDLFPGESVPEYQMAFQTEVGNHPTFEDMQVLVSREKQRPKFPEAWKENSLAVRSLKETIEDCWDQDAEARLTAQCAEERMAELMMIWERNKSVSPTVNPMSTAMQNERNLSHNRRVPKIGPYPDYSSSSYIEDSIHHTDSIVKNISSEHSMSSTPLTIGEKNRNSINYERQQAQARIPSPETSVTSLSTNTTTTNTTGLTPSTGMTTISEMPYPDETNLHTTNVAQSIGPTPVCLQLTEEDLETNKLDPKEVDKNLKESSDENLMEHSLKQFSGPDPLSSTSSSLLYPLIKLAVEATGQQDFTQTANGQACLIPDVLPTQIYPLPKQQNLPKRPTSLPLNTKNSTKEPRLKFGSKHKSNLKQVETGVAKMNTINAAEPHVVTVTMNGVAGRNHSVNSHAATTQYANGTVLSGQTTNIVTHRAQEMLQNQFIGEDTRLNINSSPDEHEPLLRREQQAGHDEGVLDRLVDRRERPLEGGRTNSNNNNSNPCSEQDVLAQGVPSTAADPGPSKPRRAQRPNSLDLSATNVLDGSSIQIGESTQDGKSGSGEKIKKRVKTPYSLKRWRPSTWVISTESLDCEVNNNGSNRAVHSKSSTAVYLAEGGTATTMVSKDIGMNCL
T3 sequence (P37231 whole entry, species assumed): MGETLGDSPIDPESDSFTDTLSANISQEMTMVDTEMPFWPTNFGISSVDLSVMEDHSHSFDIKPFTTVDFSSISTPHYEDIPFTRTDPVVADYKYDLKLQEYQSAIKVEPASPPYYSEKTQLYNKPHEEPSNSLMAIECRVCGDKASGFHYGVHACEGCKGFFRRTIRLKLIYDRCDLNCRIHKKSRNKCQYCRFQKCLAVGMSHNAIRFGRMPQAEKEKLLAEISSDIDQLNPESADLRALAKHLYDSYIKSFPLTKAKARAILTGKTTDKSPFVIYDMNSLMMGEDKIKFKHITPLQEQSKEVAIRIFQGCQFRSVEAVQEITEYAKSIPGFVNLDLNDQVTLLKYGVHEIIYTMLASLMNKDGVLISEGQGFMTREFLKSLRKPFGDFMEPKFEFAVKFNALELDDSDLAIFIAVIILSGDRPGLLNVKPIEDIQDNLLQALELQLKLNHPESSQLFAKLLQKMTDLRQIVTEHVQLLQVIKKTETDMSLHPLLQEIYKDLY
Sequence of EP4R Thr76Ala mutant (P35408 whole entry T76A): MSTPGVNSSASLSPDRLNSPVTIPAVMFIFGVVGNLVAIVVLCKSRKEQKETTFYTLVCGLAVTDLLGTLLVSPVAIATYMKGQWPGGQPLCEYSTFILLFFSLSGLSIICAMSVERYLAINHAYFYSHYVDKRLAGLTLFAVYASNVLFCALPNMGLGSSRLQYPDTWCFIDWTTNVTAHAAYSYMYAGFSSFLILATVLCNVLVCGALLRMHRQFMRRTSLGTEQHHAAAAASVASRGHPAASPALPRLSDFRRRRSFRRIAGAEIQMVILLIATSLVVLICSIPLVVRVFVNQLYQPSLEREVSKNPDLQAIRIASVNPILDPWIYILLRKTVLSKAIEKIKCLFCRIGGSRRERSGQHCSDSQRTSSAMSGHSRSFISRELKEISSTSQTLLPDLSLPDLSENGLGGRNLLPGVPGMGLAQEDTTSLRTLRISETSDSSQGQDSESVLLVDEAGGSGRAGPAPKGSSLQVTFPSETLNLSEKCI
Sequence of TGFBR1 (P36897 34-503): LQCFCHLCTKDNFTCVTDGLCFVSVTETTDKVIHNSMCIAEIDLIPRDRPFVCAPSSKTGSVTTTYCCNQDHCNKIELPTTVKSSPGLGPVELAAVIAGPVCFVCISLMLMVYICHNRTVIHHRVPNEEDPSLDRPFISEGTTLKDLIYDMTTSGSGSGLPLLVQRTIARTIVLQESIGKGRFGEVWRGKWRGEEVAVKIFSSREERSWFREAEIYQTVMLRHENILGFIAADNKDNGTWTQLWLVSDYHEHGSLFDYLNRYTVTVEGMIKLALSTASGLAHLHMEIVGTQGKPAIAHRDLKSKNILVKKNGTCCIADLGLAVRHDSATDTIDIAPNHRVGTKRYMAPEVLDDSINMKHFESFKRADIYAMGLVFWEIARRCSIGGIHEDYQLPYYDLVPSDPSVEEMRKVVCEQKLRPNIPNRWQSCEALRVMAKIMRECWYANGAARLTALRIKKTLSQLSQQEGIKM
Sequence of CDK3 (Q00526 whole entry): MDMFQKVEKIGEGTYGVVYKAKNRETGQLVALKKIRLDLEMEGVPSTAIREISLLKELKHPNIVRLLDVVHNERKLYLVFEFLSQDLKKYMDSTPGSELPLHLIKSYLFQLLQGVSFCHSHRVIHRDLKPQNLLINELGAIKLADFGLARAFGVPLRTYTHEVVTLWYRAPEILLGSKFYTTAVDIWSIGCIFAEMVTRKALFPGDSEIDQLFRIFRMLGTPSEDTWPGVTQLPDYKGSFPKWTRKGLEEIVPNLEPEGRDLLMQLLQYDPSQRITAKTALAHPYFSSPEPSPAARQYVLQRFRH
Sequence of IKK-beta (O14920 whole entry): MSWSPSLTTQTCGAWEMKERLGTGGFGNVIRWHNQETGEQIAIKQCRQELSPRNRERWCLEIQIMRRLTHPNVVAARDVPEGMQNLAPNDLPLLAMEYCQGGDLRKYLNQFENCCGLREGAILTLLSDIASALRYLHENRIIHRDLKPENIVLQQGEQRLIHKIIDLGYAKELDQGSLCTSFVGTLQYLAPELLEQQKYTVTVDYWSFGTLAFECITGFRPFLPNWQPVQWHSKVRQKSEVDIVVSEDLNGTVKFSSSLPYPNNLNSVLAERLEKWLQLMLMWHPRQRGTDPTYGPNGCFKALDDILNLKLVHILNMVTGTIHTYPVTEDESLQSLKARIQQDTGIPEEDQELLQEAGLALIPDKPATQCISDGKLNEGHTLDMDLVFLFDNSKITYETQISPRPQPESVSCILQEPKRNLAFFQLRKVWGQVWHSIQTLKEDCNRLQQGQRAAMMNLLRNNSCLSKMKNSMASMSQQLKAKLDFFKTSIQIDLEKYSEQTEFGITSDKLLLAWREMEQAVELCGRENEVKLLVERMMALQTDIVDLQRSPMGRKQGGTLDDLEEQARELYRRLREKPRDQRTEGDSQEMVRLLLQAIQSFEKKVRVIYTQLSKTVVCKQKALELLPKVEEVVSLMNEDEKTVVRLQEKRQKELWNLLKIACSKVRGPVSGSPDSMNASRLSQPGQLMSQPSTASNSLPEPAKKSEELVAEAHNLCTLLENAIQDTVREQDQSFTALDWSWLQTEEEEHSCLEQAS
Sequence of CDK9 (P50750 whole entry): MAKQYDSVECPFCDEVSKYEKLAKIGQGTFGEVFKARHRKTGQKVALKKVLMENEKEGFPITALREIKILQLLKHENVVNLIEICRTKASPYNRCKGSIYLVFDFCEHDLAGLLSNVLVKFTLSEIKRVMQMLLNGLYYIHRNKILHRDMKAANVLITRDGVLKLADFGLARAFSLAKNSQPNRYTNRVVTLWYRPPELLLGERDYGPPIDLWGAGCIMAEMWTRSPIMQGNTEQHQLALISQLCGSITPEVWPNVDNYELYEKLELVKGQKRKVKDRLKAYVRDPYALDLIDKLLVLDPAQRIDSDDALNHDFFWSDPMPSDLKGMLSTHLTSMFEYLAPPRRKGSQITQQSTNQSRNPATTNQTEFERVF
T1 sequence (P35408 whole entry, the tested form may be a part): as the sequence (P35408 whole entry T76A) above, with A76T counted along it
Sequence of AXL (P30530 26-894): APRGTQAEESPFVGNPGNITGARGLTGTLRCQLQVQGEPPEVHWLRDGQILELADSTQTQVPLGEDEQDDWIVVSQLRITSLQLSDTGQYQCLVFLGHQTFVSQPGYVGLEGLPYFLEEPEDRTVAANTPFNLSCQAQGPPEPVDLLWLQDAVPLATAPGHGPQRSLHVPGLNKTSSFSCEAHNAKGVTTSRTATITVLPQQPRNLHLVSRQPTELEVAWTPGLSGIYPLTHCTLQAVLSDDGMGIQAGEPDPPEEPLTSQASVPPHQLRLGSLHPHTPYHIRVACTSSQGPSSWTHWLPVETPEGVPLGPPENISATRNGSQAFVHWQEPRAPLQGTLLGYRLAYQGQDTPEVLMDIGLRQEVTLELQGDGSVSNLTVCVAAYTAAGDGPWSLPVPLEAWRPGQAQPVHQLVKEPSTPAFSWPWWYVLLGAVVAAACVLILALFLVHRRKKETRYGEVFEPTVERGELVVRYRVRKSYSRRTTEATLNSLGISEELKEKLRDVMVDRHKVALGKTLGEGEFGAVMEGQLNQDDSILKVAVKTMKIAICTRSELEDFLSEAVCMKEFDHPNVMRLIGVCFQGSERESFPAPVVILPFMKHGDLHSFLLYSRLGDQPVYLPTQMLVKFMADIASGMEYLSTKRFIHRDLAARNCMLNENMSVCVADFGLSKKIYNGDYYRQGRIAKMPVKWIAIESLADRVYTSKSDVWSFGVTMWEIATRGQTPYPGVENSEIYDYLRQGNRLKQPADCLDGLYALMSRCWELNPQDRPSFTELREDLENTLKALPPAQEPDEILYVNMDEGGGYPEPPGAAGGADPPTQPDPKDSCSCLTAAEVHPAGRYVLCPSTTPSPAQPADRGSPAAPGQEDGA

For CCc1nc2c(C)nc(C)cc2n1-c1ccc(CCNC(=O)NS(=O)(=O)c2ccc(C)cc2)cc1 [Grapiprant, reference compound], the reported oral bioavailability [1] is listed as 5%.

With O=C(O)C1CCC2(CC1)CC(Nc1ncnc3[nH]c4c(F)cccc4c13)C2 (stereo not drawn) [Compound 74, OC(=O)C1CCC2(CC(C2)NC=3N=CN=C4NC=5C(F)=CC=CC5C34)CC1] the “reduced potency at the Thr76Ala mutant” value (EP4R Thr76Ala mutant) was 30 fold, the Kb (EP4R) was 16 nM and the “binding to EP3 receptor” value (EP3R) was “no binding”. For the same compound, the “off-target activity at prostaglandin D2 receptor” value [2] was “no off-target activities”, the “agonist or antagonist activity at PPARγ” value (PPARγ) was “no agonist or antagonist activity” and the “inhibitory activity against PPARγ” value (PPARγ; 3 µM) was “no inhibitory activity”. For the same compound, the remaining activity at 10 µM [3] was 82%, the remaining activity at 10 µM (ABL1-nonphosphorylated) was 67% and the remaining activity at 10 µM (AXL) was 47%. For the same compound, the remaining activity at 10 µM (BMPR2; [7]) was 0%, the Kd (BMPR2; BMPR2, dose-response) was 30 nM and the “Signal (qPCR)” value (BMPR2; compound 1e-5 nM) was 3.65e-5 and 5.32e-5. The “Signal (qPCR)” value (BMPR2; compound 0.0001 nM) was 5.46e-5 and 5.63e-5, the “Signal (qPCR)” value (BMPR2; compound 0.001 nM) was 6.07e-5 and 6.11e-5 and the “Signal (qPCR)” value (BMPR2; compound 0.169 nM) was 4.64e-5 and 4.8e-5. The “Signal (qPCR)” value (BMPR2; compound 0.508 nM) was 4.94e-5 and 5.14e-5, the “Signal (qPCR)” value (BMPR2; compound 1.52 nM) was 5.5e-5 and 5.39e-5 and the “Signal (qPCR)” value (BMPR2; compound 4.57 nM) was 5.07e-5 and 5.31e-5. The “Signal (qPCR)” value (BMPR2; compound 13.7 nM) was 3.76e-5 and 3.48e-5, the “Signal (qPCR)” value (BMPR2; compound 41.2 nM) was 2.19e-5 and 2.2e-5 and the “Signal (qPCR)” value (BMPR2; compound 123 nM) was 7.98e-6 and 7.65e-6. For the same compound, the “Signal (qPCR)” value (BMPR2; compound 370 nM) was 1.69e-6 and 1.57e-6, the “Signal (qPCR)” value (BMPR2; compound 3330 nM) was 4.07e-8 and 4.89e-8 and the “Signal (qPCR)” value (BMPR2; compound 10000 nM) was 1.28e-8 and 1.26e-8. The remaining activity at 10 µM (CDK3) was 100%, the remaining activity at 10 µM (CDK9) was 97% and the remaining activity at 10 µM (IKK-beta) was 3.2%. For the same compound, the remaining activity at 10 µM (TGFBR1) was 54%, the remaining binding at 10 µM [4, 7] was 0% and the “Signal (qPCR)” value ([4]; TYK2, [Compound] 0.0001 nM) was 4e-6 and 3.91e-6. The “Signal (qPCR)” value ([4]; TYK2, [Compound] 0.01 nM) was 3.79e-6 and 3.64e-6, the “Signal (qPCR)” value ([4]; TYK2, [Compound] 0.169 nM) was 3.6e-6 and 3.79e-6 and the “Signal (qPCR)” value ([4]; TYK2, [Compound] 0.508 nM) was 4.38e-6 and 4.26e-6. For the same compound, the “Signal (qPCR)” value ([4]; TYK2, [Compound] 1.52 nM) was 4.63e-6 and 4.29e-6, the “Signal (qPCR)” value ([4]; TYK2, [Compound] 13.7 nM) was 3.86e-6 and 3.5e-6 and the “Signal (qPCR)” value ([4]; TYK2, [Compound] 41.2 nM) was 4.1e-6 and 3.94e-6. For the same compound, the “Signal (qPCR)” value ([4]; TYK2, [Compound] 123 nM) was 2.97e-6 and 3.29e-6, the “Signal (qPCR)” value ([4]; TYK2, [Compound] 370 nM) was 2.73e-6 and 2.71e-6 and the “Signal (qPCR)” value ([4]; TYK2, [Compound] 3330 nM) was 6.46e-7 and 5.93e-7. For the same compound, the “Signal (qPCR)” value ([4]; TYK2, [Compound] 10000 nM) was 1.74e-7 and 2.08e-7.

With O=C([O-])C1CCC2(CC1)CC(Nc1ncnc3[nH]c4c(F)cccc4c13)C2.[Na+] (stereo not drawn) [Compound 77, [Na+].[O-]C(=O)C1CCC2(CC(C2)NC=3N=CN=C4NC=5C(F)=CC=CC5C34)CC1] the “PGE2-induced allodynia, mechanical threshold (von Frey)” value (mice [5]; 30 mg/kg IP, 30 min before 10 µg intraplantar PGE2, individual animals) was 121.3 and 118.3 and 44.9 and 101.1 and 46.9, the “effect on PGE2-induced mechanical hypersensitivity” value (mice [5]; mouse, in vivo) was “dose-dependently prevented mechanical hypersensitivity; also recorded: dose-dependently reduces mechanical allodynia” and the “effect on CFA-induced paw edema” value (mice [6]; 30 mg/kg i.p. daily on four consecutive days) was “significantly reduced the progression of CFA-induced inflammation; also recorded: significantly slowed the development of paw edema”. The “reduction of paw thickness versus the control group” value (mice [6]; 30 mg/kg i.p. daily on four consecutive days after CFA) was “up to 20%”, the “Thickness D1 %BL” value (mice [6]; 77 30 mg/kg, CFA day 1, 1 h after dosing, % of CFA D1 thickness, individual mice 6-10 and Average, 30 mg/kg) was 92.0% and 93.2% and 87.6% and 98.7% and 95.8% and the “Thickness D1” value (mice [6]; 77 30 mg/kg, CFA day 1, 1 h after dosing, individual mice 6-10 and Average, 30 mg/kg) was 3.58 and 3.3 and 3.4 and 3.89 and 3.68. For the same compound, the “Thickness D2 (1h) %BL” value (mice [6]; 77 30 mg/kg, CFA day 2, 1 h, % of CFA D1 thickness, individual mice 6-10 and Average, 30 mg/kg) was 115.7% and 120.9% and 116.5% and 109.1% and 119.8%, the “Thickness D2 (1h)” value (mice [6]; 77 30 mg/kg, CFA day 2, 1 h, individual mice 6-10 and Average, 30 mg/kg) was 4.5 and 4.28 and 4.52 and 4.3 and 4.6 and the “Thickness BL D2” value (mice [6]; 77 30 mg/kg, CFA day 2 before that day's dose (vehicle head: CFA D2), individual mice 6-10 and Average, 30 mg/kg) was 4.81 and 4.39 and 4.69 and 4.16 and 4.59. The “Thickness BL D2 %” value (mice [6]; 77 30 mg/kg, CFA day 2 before that day's dose, % of CFA D1 thickness, individual mice 6-10 and Average, 30 mg/kg) was 123.7% and 124.0% and 120.9% and 105.6% and 119.5%, the “Thickness D3 (1h) %” value (mice [6]; 77 30 mg/kg, CFA day 3, 1 h, % of CFA D1 thickness, individual mice 6-10 and Average, 30 mg/kg) was 128.5% and 117.8% and 103.9% and 101.5% and 122.4% and the “Thickness D3 (1h)” value (mice [6]; 77 30 mg/kg, CFA day 3, 1 h, individual mice 6-10 and Average, 30 mg/kg) was 5 and 4.17 and 4.03 and 4 and 4.7. For the same compound, the “Thickness CFA D3 %” value (mice [6]; 77 30 mg/kg, CFA day 3 before that day's dose, % of CFA D1 thickness, individual mice 6-10 and Average, 30 mg/kg) was 131.9% and 121.8% and 110.3% and 105.1% and 128.9%, the “Thickness CFA D3” value (mice [6]; 77 30 mg/kg, CFA day 3 before that day's dose, individual mice 6-10 and Average, 30 mg/kg) was 5.13 and 4.31 and 4.28 and 4.14 and 4.95 and the “Thickness D4 (1h) %” value (mice [6]; 77 30 mg/kg, CFA day 4, 1 h, % of CFA D1 thickness, individual mice 6-10 and Average, 30 mg/kg) was 113.1% and 107.3% and 103.1% and 103.6% and 104.7%. For the same compound, the “Thickness D4 (1h)” value (mice [6]; 77 30 mg/kg, CFA day 4, 1 h, individual mice 6-10 and Average, 30 mg/kg) was 4.4 and 3.8 and 4 and 4.08 and 4.02, the “Thickness CFA D4 %” value (mice [6]; 77 30 mg/kg, CFA day 4 before that day's dose, % of CFA D1 thickness, individual mice 6-10 and Average, 30 mg/kg) was 118.3% and 110.2% and 107.5% and 106.1% and 109.1% and the “Thickness CFA D4” value (mice [6]; 77 30 mg/kg, CFA day 4 before that day's dose, individual mice 6-10 and Average, 30 mg/kg) was 4.6 and 3.9 and 4.17 and 4.18 and 4.19. For the same compound, the “Thickness CFA D5 %” value (mice [6]; 77 30 mg/kg, CFA day 5, % of CFA D1 thickness, individual mice 6-10 and Average, 30 mg/kg) was 100.0% and 107.3% and 97.4% and 90.6% and 104.2%, the “Thickness CFA D5” value (mice [6]; 77 30 mg/kg, CFA day 5, individual mice 6-10 and Average, 30 mg/kg) was 3.89 and 3.8 and 3.78 and 3.57 and 4 and the “Thickness CFA D7 %” value (mice [6]; 77 30 mg/kg, CFA day 7, % of CFA D1 thickness, individual mice 6-10 and Average, 30 mg/kg) was 102.8% and 96.0% and 90.2% and 86.0% and 106.8%. For the same compound, the “Thickness CFA D7” value (mice [6]; 77 30 mg/kg, CFA day 7, individual mice 6-10 and Average, 30 mg/kg) was 4 and 3.4 and 3.5 and 3.39 and 4.1.
